Measured values reported in patent EP0565593B1, “REDUCING PESTICIDAL INTERACTIONS IN CROPS” (priority 1990, dated 1992).
Several values for one entry are separate records, joined by “and”; a condition that tells them apart may be missing. Identical values can stand only once. Like-named read-outs stand apart in the source and are kept apart here.

Experiments:
Velvetleaf (VELE) [1] = format: in vivo, Abutilon theophrasti
Giant foxtail (GIFT) = assay: whole plant or invertebrate; format: in vivo
Corn [2] = test system: Corn
Shattercane (SHCA) = format: in vivo
Corn [3] = test system: Corn; remark: listed apart in the source
Velvetleaf (VELE) [4] = assay: whole plant or invertebrate; format: in vivo, Abutilon theophrasti
[5] = […], observed 9 days later (Table 29)
[6] = […], observed 9 days later (Table 30)
[7] = […], PPI, 13 days after PPI (Table 31)
[8] = Table 50, Biocide No. 8 alone 8.96 kg/Ha PPI, no herbicide, no antidote
[9] = Table 51, Biocide No. 8 alone 8.96 kg/Ha PPI, observed 13 days after treatment
[10] = […], observed 7 days after POE (Table 35)
[11] = […], observed 7 days after POE (Table 36)
[12] = […], observed 8 days later (Table 32)
[13] = […], observed 8 days later (Table 33)
[14] = […], PPI, 14 days after PPI (Table 34)
[15] = Antidote 4.48 + Biocide No. 1 8.96 Kg/Ha PPI, Herb. No. 8 0.07, 5 DAP, before herbicide application
[16] = Antidote 4.48 + Biocide No. 1 8.96 Kg/Ha PPI, Herb. No. 8 0.07 POE, 13 DAP
[17] = Antidote 4.48 + Biocide No. 1 8.96 Kg/Ha PPI, Herbicide No. 7 0.28 POE, 13 days after planting
[18] = Herb. […], 5 DAP, before herbicide application
[19] = Herb. […], 13 DAP, after herbicide application
[20] = Table 14: Herbicide No. 7 (ACCENT) 0.84 Kg/Ha POE + Biocide No. 2 8.96 Kg/Ha PPI + antidote 4.48 Kg/Ha PPI, 13 days after planting, 8 days after herbicide
[21] = […], 13 days after planting, 8 days after herbicide
[22] = […], observed 10 days after herbicide application
[23] = Antidote 8.96 + Biocide No. 1 8.96 Kg/Ha PPI, Herb. No. 8 0.07, 5 DAP, before herbicide application
[24] = Antidote 8.96 + Biocide No. 1 8.96 Kg/Ha PPI, Herb. No. 8 0.07 POE, 13 DAP
[25] = Antidote 8.96 + Biocide No. 1 8.96 Kg/Ha PPI, Herbicide No. 7 0.28 POE, 13 days after planting
[26] = Table 14: Herbicide No. 7 (ACCENT) 0.84 Kg/Ha POE + Biocide No. 2 8.96 Kg/Ha PPI + antidote 8.96 Kg/Ha PPI, 13 days after planting, 8 days after herbicide

SMILES: CC(C)CC1c2ccccc2CCN1C(=O)C(Cl)Cl (centres unmarked) [compound 41]
- % Inhibition VELE (Velvetleaf (VELE) [1]; [5]): 90%
- % Inhibition VELE (Velvetleaf (VELE) [1]; [6]): 70%
- % Inhibition GIFT (Giant foxtail (GIFT); [7]): 90%
- % Inhibition Corn (Corn [2]; [7]): 60%
- % Inhibition SHCA (Shattercane (SHCA); [5]): 80%
- % Inhibition SHCA (Shattercane (SHCA); [6]): 30%
- % Inhibition Corn (Corn [3]; [5]): 25%
- % Inhibition Corn (Corn [3]; [6]): 45%
- % Inhibition VELE (Velvetleaf (VELE) [4]; [7]): 80%

SMILES: CCCSP(=O)(OCC)SCCC [Biocide No. 8, O-Ethyl-S,S-dipropyl phosphorothioate, reference compound]
- % Inhibition VELE (Velvetleaf (VELE) [1]; [8]): 15%
- % Inhibition GIFT (Giant foxtail (GIFT); [9]): 90%
- corn injury (Corn [2]; MOCAP applied alone, PPI, Example 52): significant corn injury
- % Inhibition Corn (Corn [2]; [9]): 30%
- % Inhibition SHCA (Shattercane (SHCA); [8]): 85%
- corn injury (Corn [3]; MOCAP alone at 8.96 kg/ha, Example 51): corn stunting, leaf malformations and stand loss
- % Inhibition Corn (Corn [3]; [8]): 30%
- % Inhibition VELE (Velvetleaf (VELE) [4]; [9]): 20%

SMILES: CC(Cl)C(=O)Nc1nc(C(F)(F)F)c(I)s1 (centres unmarked) [compound 72]
- % Inhibition VELE (Velvetleaf (VELE) [1]; [10]): 85%
- % Inhibition VELE (Velvetleaf (VELE) [1]; [11]): 70%
- % Inhibition GIFT (Giant foxtail (GIFT); in vivo): 75%
- % Inhibition Corn (Corn [2]; in vivo): 75%
- % Inhibition SHCA (Shattercane (SHCA); [10]): 75%
- % Inhibition SHCA (Shattercane (SHCA); [11]): 30%
- % Inhibition Corn (Corn [3]; [10]): 70%
- % Inhibition Corn (Corn [3]; [11]): 60%
- % Inhibition VELE (Velvetleaf (VELE) [4]; in vivo): 90%

SMILES: O=C(O)c1sc(Cl)nc1C(F)(F)F [compound 65]
- % Inhibition VELE (Velvetleaf (VELE) [1]; [10]): 80%
- % Inhibition VELE (Velvetleaf (VELE) [1]; [11]): 65%
- % Inhibition GIFT (Giant foxtail (GIFT); in vivo): 70%
- % Inhibition Corn (Corn [2]; in vivo): 45%
- % Inhibition SHCA (Shattercane (SHCA); [10]): 70%
- % Inhibition SHCA (Shattercane (SHCA); [11]): 30%
- % Inhibition Corn (Corn [3]; [10]): 25%
- % Inhibition Corn (Corn [3]; [11]): 50%
- % Inhibition VELE (Velvetleaf (VELE) [4]; in vivo): 90%

SMILES: C#CCOC(=O)COC(c1ccccc1)c1ccccc1 [compound 54]
- % Inhibition VELE (Velvetleaf (VELE) [1]; [12]): 90%
- % Inhibition VELE (Velvetleaf (VELE) [1]; [13]): 65%
- % Inhibition GIFT (Giant foxtail (GIFT); [14]): 60%
- % Inhibition Corn (Corn [2]; [14]): 55%
- % Inhibition SHCA (Shattercane (SHCA); [12]): 70%
- % Inhibition SHCA (Shattercane (SHCA); [13]): 20%
- % Inhibition Corn (Corn [3]; [12]): 30%
- % Inhibition Corn (Corn [3]; [13]): 55%
- % Inhibition VELE (Velvetleaf (VELE) [4]; [14]): 90%

SMILES: CCOC(=O)c1sc(Br)nc1C(F)(F)F [compound 66]
- % Inhibition VELE (Velvetleaf (VELE) [1]; [10]): 80%
- % Inhibition VELE (Velvetleaf (VELE) [1]; [11]): 60%
- % Inhibition GIFT (Giant foxtail (GIFT); in vivo): 70%
- % Inhibition Corn (Corn [2]; in vivo): 50%
- % Inhibition SHCA (Shattercane (SHCA); [10]): 60%
- % Inhibition SHCA (Shattercane (SHCA); [11]): 25%
- % Inhibition Corn (Corn [3]; [10]): 30%
- % Inhibition Corn (Corn [3]; [11]): 50%
- % Inhibition VELE (Velvetleaf (VELE) [4]; in vivo): 90%

SMILES: O=C(C(Cl)Cl)N1CCN(C(=O)C(Cl)Cl)CC1 [compound 3]
- % Inhibition VELE (Velvetleaf (VELE) [1]; [5]): 95%
- % Inhibition VELE (Velvetleaf (VELE) [1]; [6]): 70%
- % Inhibition GIFT (Giant foxtail (GIFT); [7]): 75%
- % Inhibition Corn (Corn [2]; [7]): 55%
- % Inhibition SHCA (Shattercane (SHCA); [5]): 70%
- % Inhibition SHCA (Shattercane (SHCA); [6]): 40%
- % Inhibition Corn (Corn [3]; [5]): 35%
- % Inhibition Corn (Corn [3]; [6]): 60%
- % Inhibition VELE (Velvetleaf (VELE) [4]; [7]): 95%

SMILES: CCOC(=O)c1cnoc1-c1ccc(Cl)cc1Cl [compound 30]
- % Inhibition 5 DAP VELE (Velvetleaf (VELE) [1]; [15]): 75%
- % Inhibition 13 DAP VELE (Velvetleaf (VELE) [1]; [16]): 95%
- % Inhibition VELE (Velvetleaf (VELE) [1]; [17]): 95%
- % Inhibition 5 DAP VELE (Velvetleaf (VELE) [1]; [18]): 90%
- % Inhibition 13 DAP VELE (Velvetleaf (VELE) [1]; [19]): 95%
- % Inhibition VELE (Velvetleaf (VELE) [1]; [20]): 100%
- % Inhibition VELE (Velvetleaf (VELE) [1]; [21]): 100%
- % Inhibition VELE (Velvetleaf (VELE) [1]; [22]): 95%
- % Inhibition 5 DAP VELE (Velvetleaf (VELE) [1]; in vivo): 80%
- % Inhibition 13 DAP VELE (Velvetleaf (VELE) [1]; in vivo): 95%
- % Inhibition GIFT (Giant foxtail (GIFT); in vivo): 65% and 80% and 90% and 75% and 95%
- % Inhibition 5 DAP SHCA (Shattercane (SHCA); [15]): 50%
- % Inhibition 13 DAP SHCA (Shattercane (SHCA); [16]): 75%
- % Inhibition SHCA (Shattercane (SHCA); [17]): 85%
- % Inhibition 13 DAP SHCA (Shattercane (SHCA); [19]): 95%
- % Inhibition SHCA (Shattercane (SHCA); [20]): 90%
- % Inhibition SHCA (Shattercane (SHCA); [21]): 90%
- % Inhibition SHCA (Shattercane (SHCA); [22]): 70%
- % Inhibition 5 DAP SHCA (Shattercane (SHCA); in vivo): 25%
- % Inhibition 13 DAP SHCA (Shattercane (SHCA); in vivo): 95%
- % Inhibition SHCA (Shattercane (SHCA); in vivo): 90% and 60% and 70%
- % Inhibition 5 DAP Corn (Corn [3]; [15]): 10%
- % Inhibition 13 DAP Corn (Corn [3]; [16]): 50%
- % Inhibition Corn (Corn [3]; [17]): 55%
- % Inhibition 5 DAP Corn (Corn [3]; [18]): 0%
- % Inhibition Corn (Corn [3]; [20]): 30%
- % Inhibition Corn (Corn [3]; [21]): 25%
- % Inhibition Corn (Corn [3]; [22]): 70%
- % Inhibition 5 DAP Corn (Corn [3]; in vivo): 10%
- % Inhibition 13 DAP Corn (Corn [3]; in vivo): 56%
- % Inhibition Corn (Corn [3]; in vivo): 50% and 35% and 40%
- effect on corn before application of the herbicide (Corn [3]; in vivo): Some injury
- % Inhibition VELE (Velvetleaf (VELE) [4]; in vivo): 90% and 95% and 100%

SMILES: COc1ccc(OC)c(C(=O)CC2OC(=O)c3ccccc32)c1 (centres unmarked) [compound 77]
- % Inhibition 5 DAP VELE (Velvetleaf (VELE) [1]; [23]): 0%
- % Inhibition 13 DAP VELE (Velvetleaf (VELE) [1]; [24]): 90%
- % Inhibition VELE (Velvetleaf (VELE) [1]; [25]): 65%
- % Inhibition 5 DAP VELE (Velvetleaf (VELE) [1]; [18]): 0%
- % Inhibition VELE (Velvetleaf (VELE) [1]; [26]): 70%
- % Inhibition VELE (Velvetleaf (VELE) [1]; [21]): 70%
- % Inhibition VELE (Velvetleaf (VELE) [1]; [22]): 80%
- % Inhibition 5 DAP VELE (Velvetleaf (VELE) [1]; in vivo): 20%
- % Inhibition 13 DAP VELE (Velvetleaf (VELE) [1]; in vivo): 95%
- % Inhibition GIFT (Giant foxtail (GIFT); in vivo): 60% and 95% and 85% and 80% and 70%
- safening activity (Corn [2]; MON-12000 + OP insecticides, Examples 20-23): low or nil
- % Inhibition 5 DAP SHCA (Shattercane (SHCA); [23]): 10%
- % Inhibition 13 DAP SHCA (Shattercane (SHCA); [24]): 85%
- % Inhibition SHCA (Shattercane (SHCA); [25]): 70%
- % Inhibition SHCA (Shattercane (SHCA); [26]): 85%
- % Inhibition SHCA (Shattercane (SHCA); [21]): 95%
- % Inhibition SHCA (Shattercane (SHCA); [22]): 60%
- % Inhibition 5 DAP SHCA (Shattercane (SHCA); in vivo): 60%
- % Inhibition 13 DAP SHCA (Shattercane (SHCA); in vivo): 90%
- % Inhibition SHCA (Shattercane (SHCA); in vivo): 85% and 55% and 65% and 45%
- % Inhibition 5 DAP Corn (Corn [3]; [23]): 0%
- % Inhibition 13 DAP Corn (Corn [3]; [24]): 75%
- % Inhibition Corn (Corn [3]; [25]): 25%
- % Inhibition 5 DAP Corn (Corn [3]; [18]): 0%
- % Inhibition Corn (Corn [3]; [26]): 25%
- % Inhibition Corn (Corn [3]; [21]): 15%
- % Inhibition Corn (Corn [3]; [22]): 20%
- % Inhibition 5 DAP Corn (Corn [3]; in vivo): 15%
- % Inhibition 13 DAP Corn (Corn [3]; in vivo): 65%
- activity in reducing corn injury (Corn [3]; primisulfuron POE + biocides PPI, Tables 8-10): either inactive or weakly active
